Data published in ChEMBL document CHEMBL4196190, “Tetrahydrobenzofuran-6(2 H)-one Neolignans from Ocotea heterochroma: Their Platelet Activating Factor (PAF) Antagonistic Activity and in Silico Insights into the PAF Receptor Binding Mode” (J Nat Prod, 2018).
pIC50: −log10 of the molar value.

test: Antagonist activity at rabbit PAF receptor assessed as inhibition of PAF-induced platelet aggregation incubated for 5 mins followed by PAF addition; details: Oryctolagus cuniculus

Compound	pIC50
C=CC[C@H]1C[C@]2(OC)C(=C(OC)C1=O)O[C@@H](c1cc(OC)c(OC)c(OC)c1)[C@@H]2C	6.64
C=CCC1=C[C@]2(OC)[C@H](C)[C@@H](c3cc(OC)c4c(c3)OCO4)[C@](OC)(C1=O)[C@H]2O [CINERIN C]	5.96
C=CC[C@H]1C[C@]2(OC)C(=C(OC)C1=O)O[C@@H](c1cc(OC)c3c(c1)OCO3)[C@@H]2C	6.41
C=CCC1=C[C@@]2(OC)C(=CC1=O)O[C@H](c1ccc(OC)c(OC)c1)[C@H]2C [KADSURENONE]	6.82
C[C@@H]1C(=O)O[C@H]2[C@H](O)[C@@]34[C@H]5C[C@@H](C(C)(C)C)[C@]36[C@@H](OC(=O)[C@@H]6O)O[C@@]4(C(=O)O5)[C@@]12O [GINKOLIDE B]	6.03
